Data as given in US9533975B2, “Dual-action, unnatural proline-rich peptides as antibiotic agents and methods thereof” (Purdue Research Foundation, priority 2014, dated 2017).

Experiments:
[1] = test system: human red blood cells (hRBCs); conditions: at 5 'LIM
in vitro = conditions: human

Compound: CC[C@H](C)[C@H](NC(=O)CN)C(=O)NCC(=O)N[C@@H](C)C(=O)N[C@H](C(=O)N[C@@H](CC(C)C)C(=O)N[C@@H](CCCCN)C(=O)N[C@H](C(=O)N[C@@H](CC(C)C)C(=O)N[C@H](C(=O)N[C@H](C(=O)NCC(=O)N[C@@H](CC(C)C)C(=O)N1CCC[C@H]1C(=O)N[C@@H](C)C(=O)N[C@@H](CC(C)C)C(=O)N[C@H](C(=O)N[C@@H](CO)C(=O)N[C@@H](Cc1c[nH]c2ccccc12)C(=O)N[C@H](C(=O)N[C@@H](CCCCN)C(=O)N[C@@H](CCCNC(=N)N)C(=O)N[C@@H](CCCCN)C(=O)N[C@@H](CCCNC(=N)N)C(=O)N[C@@H](CCC(N)=O)C(=O)N[C@@H](CCC(N)=O)C(N)=O)[C@@H](C)CC)[C@@H](C)CC)[C@@H](C)O)[C@@H](C)O)C(C)C)C(C)C [Melittin]
- hemolytic activity [1]: highly hemolytic
- hemolysis at 5 µM (in vitro): > 80%
